Measurements reported in patent publication US9096591B2, “Tetracyclic compounds” (Medivation Technologies, Inc., priority 2007, dated 2015).

What was measured:
[1] = target: T1, human recombinant dopamine D2L receptor (Homo sapiens, UniProt P14416); assay: Dopamine D2L antagonist activity ([35S]GTPγS binding, SPA); type: biochemical; details: for Antagonist Activity As Measured by % Inhibition D2L / inhibition at 0.03 µM / inhibition at 0.1 µM / inhibition at 0.3 µM: two values = assay run twice; for inhibition at 0.03 µM / inhibition at 0.1 µM / inhibition at 0.3 µM / inhibition at 1 µM / inhibition at 3 µM: read-out: Antagonist Activity As Measured by % Inhibition D2L
T1 construct: expressed in transfected cells; host or cells: CHO cells
Protocol: To determine for agonist or antagonist activity of compounds of the invention in functional assays, human recombinant dopamine D2L receptor stably expressed in Chinese hamster ovary (CHO) cells (Senogles S E et al. J Biol Chem. 265(8): 4507, 1990) was used. Compounds of invention were pre-incubated with the membranes (0.1 mg/ml) and […] in modified HEPES buffer (20 mM HEPES, pH 7.4, 100 mM NaCl, 10 mM MgCl2, 1 mM DTT, 1 mM EDTA) for 20 minutes and Scintillation Proximity Assay (SPA) beads were added for another 60 minutes at 30° C. The reaction was initiated by 0.3 nM [^35S]GTPγS for an additional 15 minute incubation period. […] Compounds were screened at 3 μM or lower, using 0.4% DMSO as vehicle. Assay results are presented as the percent response of specific binding in Table 8.

[2] = target: human recombinant dopamine D2S receptor (Homo sapiens, UniProt P14416); assay: Dopamine D2S antagonist activity ([35S]GTPγS binding, SPA); type: biochemical; details: for Antagonist Activity As Measured by % Inhibition D2S / inhibition at 0.03 µM / inhibition at 0.1 µM / inhibition at 0.3 µM: two values = assay run twice; for inhibition at 0.03 µM / inhibition at 0.1 µM / inhibition at 0.3 µM / inhibition at 1 µM / inhibition at 3 µM: read-out: Antagonist Activity As Measured by % Inhibition D2S
Protocol: To determine for agonist or antagonist activity of compounds of the invention in functional assays, human recombinant dopamine D2S receptor stably expressed in Chinese hamster ovary (CHO) cells (Gilliland S L and Alper R H. Naunyn-Schmiedeberg's Archives of Pharmacology. 361: 498, 2000) was used. Compounds of invention were pre-incubated with the membranes (0.05 mg/ml) and 3 μM GDP in modified HEPES buffer (20 mM HEPES, pH 7.4, 100 mM NaCl, 10 mM MgCl2, 1 mM DTT, 1 mM EDTA) for 20 minutes and Scintillation Proximity Assay (SPA) beads were then added for another 60 minutes at 30° C. The reaction was initiated by 0.3 nM [^35S]GTPγS for an additional 30 minute incubation period. […] Compounds were screened at 3 μM or lower, using 0.4% DMSO as vehicle. Assay results are presented as the percent response of specific binding in Table 9.

AMPA receptors = assay: AMPA-receptor activity: kainic acid-induced currents in Purkinje cells (patch-clamp); type: cell-based, rat; details: mean±SEM, control=100%
Protocol: The analysis of effects of the testing compounds on AMPA receptors was carried out using an electrophysiological patch-clamp method in whole cell configuration (Hamill et al., 1980) of the Purkinje cell fresh isolated from the cerebellum of juvenile rats (12-15 days). The isolation was carried out using a modified method (Kaneda et al., 1988) in which cerebral 400-600 μm sections were incubated for 60 min in the temperature controlled chamber in 10 mL of buffer solution (150 mM NaCl, 5 mM KCl, 2 mM CaCl2, 2 mM MgSO4.7H2O, 10 mM HEPES, 15 mM glucose, pH 7.42). The incubation solution was exchanged with the incubation buffer with pronase (2 mg/mL) and collagenase (1 mg/mL) for 70 min. After a 20 min wash with the original buffer, all sections were placed into the Petri dish and were separated using a Pasteur pipette. All solutions were constantly aerated with 100% O2 at 34° C. The composition of extracellular saline was: 150 mM NaCl, 5 mM KCl, 2.6 mM CaCl2, 2 mM MgSO4.7H2O, 10 mM HEPES, 15 mM glucose, pH 7.36. The transmembrane current was induced as a result of the activation of AMPA receptors by a superfusion with the agonist solution (kainic acid). The currents were measured using borosilicate microelectrodes (resistance […]) filled with 100 mM KCl, 11 mM EGTA, 1 mM CaCl2, 1 mM MgCl2, 10 mM HEPES, 5 mM ATP, pH 7.2. The currents were registered using EPC-9 (HEKA, Germany) and recorded with Pulse software package which was also purchased from HEKA. The analysis of observations was carried out using Pulsefit (HEKA, Germany) and the statistical significance was analyzed using a Student's T-test criteria. Data are presented as mean±SEM in % of control values.
Compounds of the invention were tested in 3-5 neurons. Every concentration of compound was repeated three-four times in every neuron. Data are presented as mean±SEM in % of Control values (Table 13+14, FIGS. 8-12). Control value=100%.

rat brain mitochondria = assay: Mitochondrial membrane potential (safranine test); type: biochemical, Wistar rats; details: suggested from membrane potential and calcium retention data (Table 15)
Protocol: The same experimental conditions were used for the assessment of alterations of the mitochondrial membrane potential, except that safranine was included in incubation medium at a final concentration of 10 mkM and succinate was added before the compounds of the invention. This concentration of safranine was determined before hand as the optimal compromise between signal/baseline ratio and interference of safranine itself with swelling induced by Ca/Pi (safranine tended to enhance Ca/Pi-induced swelling at concentrations above 20 mkM). Changes in the status of the mPT pore were assessed spectrophotometrically at 554 and 524 nm in a cuvette in a Beckman DU 640 spectrophotometer. A554-524 represents the characteristics of mitochondrial potential and A554-characteristics of mitochondrial swelling.

T1 sequence (P14416 whole entry): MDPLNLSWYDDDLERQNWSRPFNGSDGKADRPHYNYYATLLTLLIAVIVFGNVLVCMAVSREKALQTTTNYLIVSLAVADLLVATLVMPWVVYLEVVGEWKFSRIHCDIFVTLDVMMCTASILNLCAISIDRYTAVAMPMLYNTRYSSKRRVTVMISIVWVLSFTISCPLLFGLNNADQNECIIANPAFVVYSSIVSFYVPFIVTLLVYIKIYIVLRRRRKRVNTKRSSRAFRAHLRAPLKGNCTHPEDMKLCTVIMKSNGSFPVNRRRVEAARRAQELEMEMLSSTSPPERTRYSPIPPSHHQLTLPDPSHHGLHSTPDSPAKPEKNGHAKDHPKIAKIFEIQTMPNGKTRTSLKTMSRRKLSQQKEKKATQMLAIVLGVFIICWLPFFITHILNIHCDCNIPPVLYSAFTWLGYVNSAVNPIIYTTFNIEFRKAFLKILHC
Sequence of human recombinant dopamine D2S receptor (P14416 1-414 isoform P14416-2): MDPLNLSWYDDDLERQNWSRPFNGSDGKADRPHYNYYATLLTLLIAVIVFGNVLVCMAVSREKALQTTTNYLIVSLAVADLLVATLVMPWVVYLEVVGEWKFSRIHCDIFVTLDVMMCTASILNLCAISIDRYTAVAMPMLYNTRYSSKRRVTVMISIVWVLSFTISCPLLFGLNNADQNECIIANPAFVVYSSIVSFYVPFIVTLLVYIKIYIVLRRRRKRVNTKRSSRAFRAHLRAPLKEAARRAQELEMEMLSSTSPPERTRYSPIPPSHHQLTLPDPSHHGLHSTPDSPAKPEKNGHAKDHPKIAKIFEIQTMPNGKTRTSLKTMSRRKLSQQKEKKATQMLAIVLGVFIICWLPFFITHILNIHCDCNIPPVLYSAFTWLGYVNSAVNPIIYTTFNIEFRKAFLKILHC

| SMILES | kainic acid-induced currents in Purkinje cells, % of Control values (AMPA receptors; compound 10^−5 M) | kainic acid-induced currents in Purkinje cells, % of Control values (AMPA receptors; compound 10^−6 M) | kainic acid-induced currents in Purkinje cells, % of Control values (AMPA receptors; compound 10^−7 M) | kainic acid-induced currents in Purkinje cells, % of Control values (AMPA receptors; compound 10^−8 M) | kainic acid-induced currents in Purkinje cells, % of Control values (AMPA receptors; compound 10^−9 M) | impairment of mitochondrial respiratory functions accompanying inhibition of MPT (rat brain mitochondria) | kainic acid-induced currents in Purkinje cells, % of Control values (AMPA receptors; compound 3 × 10^−5 M) | other results |
| --- | --- | --- | --- | --- | --- | --- | --- | --- |
| CN1CCc2c(c3cc(Cl)ccc3n2CCc2ccccc2)C1 [Compound 36, 8-chloro-2,3,4,5-tetrahydro-2-methyl-5-phenethyl-1H-pyrido[4,3-b]indole] | – | – | – | – | – | – | – | Antagonist Activity As Measured by % Inhibition D2L ([1]; 0.03 uM): 43%; inhibition at 0.03 µM ([1]; 0.03 uM): 48%; Antagonist Activity As Measured by % Inhibition D2L ([1]; 0.1 uM): 57%; inhibition at 0.1 µM ([1]; 0.1 uM): 73%; Antagonist Activity As Measured by % Inhibition D2L ([1]; 0.3 uM): 88%; inhibition at 0.3 µM ([1]; 0.3 uM): 83%; inhibition at 1 µM [1]: 85%; inhibition at 3 µM [1]: 104%; Antagonist Activity As Measured by % Inhibition D2S ([2]; 0.03 uM): 85%; inhibition at 0.03 µM ([2]; 0.03 uM): 76%; inhibition at 0.1 µM ([2]; 0.1 uM): 97%; Antagonist Activity As Measured by % Inhibition D2S ([2]; 0.3 uM): 104%; inhibition at 0.3 µM ([2]; 0.3 uM): 98%; inhibition at 1 µM [2]: 102%; inhibition at 3 µM [2]: 107% |
| COc1ccc(CCn2c3c(c4cc(C)ccc42)CN(C)CC3)cc1 [Compound 247] | – | – | – | – | – | – | – | Antagonist Activity As Measured by % Inhibition D2L ([1]; 0.03 uM): 52%; inhibition at 0.03 µM ([1]; 0.03 uM): 48%; inhibition at 0.1 µM ([1]; 0.1 uM): 66%; Antagonist Activity As Measured by % Inhibition D2L ([1]; 0.3 uM): 83%; inhibition at 0.3 µM ([1]; 0.3 uM): 81%; inhibition at 1 µM [1]: 89%; inhibition at 3 µM [1]: 91%; Antagonist Activity As Measured by % Inhibition D2S ([2]; 0.03 uM): 68%; inhibition at 0.03 µM ([2]; 0.03 uM): 67%; Antagonist Activity As Measured by % Inhibition D2S ([2]; 0.1 uM): 89%; inhibition at 0.1 µM ([2]; 0.1 uM): 97%; Antagonist Activity As Measured by % Inhibition D2S ([2]; 0.3 uM): 93%; inhibition at 0.3 µM ([2]; 0.3 uM): 81%; inhibition at 1 µM [2]: 110%; inhibition at 3 µM [2]: 108% |
| Cc1ccc2c(c1)c1c(n2CCc2nc(-c3ccccc3)cs2)CCN(C)C1 [Compound C1-5] | 126 ± 18% | 64 ± 23% | 70 ± 23% | 62 ± 12% | 64 ± 8% | impairment of mitochondrial respiratory functions | – | – |
| COc1ccc2c(c1)c1c(n2CCc2nc(-c3ccccc3)cs2)CCN(C)C1 [Compound C1-6] | 135 ± 1% | 146 ± 12% | 116 ± 7% | 101 ± 4% | 100 ± 3% | – | 130 ± 6% | – |
| CN1CCc2c(c3ccccc3n2CCc2noc(-c3ccccc3)n2)C1 [Compound C4-1] | 97 ± 4% | 110 ± 5% | 115 ± 3% | 147 ± 11% | 125 ± 6% | impairment of mitochondrial respiratory functions | – | – |
| Cc1ccc2c(c1)c1c(n2CCc2noc(-c3ccccc3)n2)CCN(C)C1 [Compound C4-4] | 150 ± 26% | 142 ± 11% | 147 ± 15% | 129 ± 5% | 100% | impairment of mitochondrial respiratory functions | 150 ± 20% | – |
| CN1CCc2c(c3cc(Cl)ccc3n2CCc2noc(-c3ccccc3)n2)C1 [Compound C4-6] | 152 ± 30% | 140 ± 25% | 120 ± 20% | 100 ± 3% | – | impairment of mitochondrial respiratory functions | 149 ± 33% | – |
